Results: publication PMC8753592, “Long-acting capsid inhibitor protects macaques from repeat SHIV challenges” (Nature, 2021)

Assay: Metabolic stability of [3H]GS-CA1 in primary rhesus hepatocytes
Assay type: in vitro ADME
Description: Propranolol (1 μM final), a compound known to be efficiently metabolized by hepatocytes by oxidation and conjugation, was used as a positive control. A cell-free control was incubated in parallel as a negative control. Aliquots (100 μl) were removed after 0 h, 1 h, 3 h and 6 h and were then mixed with 200 μl quenching solution, placed on a shaker for 10 min and centrifuged at 3,000g for 60 min. The supernatant was transferred to a new plate, diluted with 100 μl water and placed on a shaker for 10 min. […] PerkinElmer Ultima-Flo was used as the scintillation cocktail, which was mixed with the HPLC effluent at a ratio of 1:1. Sample (100 μl) was injected using a Leap Technologies CTC PAL autosampler. Separation was achieved on a Phenomenex Synergi Fusion-RP 80-Å pore size, 4-μm particle size, 150 × 4.6-mm column maintained at 32 °C. Mobile phase A consisted of 95% water, 5% acetonitrile and 0.1% trifluoroacetic acid (TFA). Mobile phase B consisted of 95% acetonitrile, 5% water and 0.1% TFA. […] The column was allowed to re-equilibrate for 12 min between injections. Quantification was based on the radiochromatographic peak area using Dionex (Thermo Scientific) Chromeleon 6.8 software.

SMILES: CC(C)(C#Cc1ccc(-c2ccc(Cl)c3c(NS(=O)(=O)C4CC4)nn(CC(F)F)c23)c([C@H](Cc2cc(F)cc(F)c2)NC(=O)Cn2nc(C(F)F)c3c2C(F)(F)[C@@H]2C[C@H]32)n1)S(C)(=O)=O [GS-CA1]
- hepatic extraction: 2.9%
- predicted rate of hepatic clearance (3H-labelled GS-CA1): 1.2 mL/min/kg
